Assay [1] has as its target Aβ20-34, mid-domain fragment of Aβ1-42 and Aβ1-40. Briefly: monocyte lysate pool + 12 pg/ml Aβ20-34 pre-incubated with the antibody, then Simoa Aβx-34 immunoassay (untreated 13.8 pg/ml).
Assay [2] shares this target. The assay can be described thus: monocyte lysate pool + 12 pg/ml Aβ20-34 pre-incubated with the antibody, then Simoa Aβx-34 immunoassay.
Assay [3] relates to THP-1 cells. The assay can be described thus: Clearance assay on a background of LPS inflammatory activation, Mesoscale immunoassay (Example 4). Type of assay: cell-based. The conditions noted are these: with LPS, 16 h; Aβ1-40 2 h; 4 h chase; reference LPS+Aβ40 4 hour chase. Here is the method: The immunoassay was set up on a Mesoscale platform. THP-1 cells were differentiated towards phagocytic monocytes/macrophages during a 48 h incubation with 12-O-tetra-decanoylphorbol-13-acetate (TPA). Media were replaced with fresh medium containing LPS alone or LPS together with DHA or NS1738 or combination of DHA and NS1738, for an overnight incubation (16 h). The marker protein (Aβ1-40) was added to the cells for an additional 2 h incubation. Media were replaced with fresh medium without any additives and the cells were further incubated for a 4 h chase period. The cells were kept cold, media removed, and the cells washed with cold PBS. Lysis buffer containing protease inhibitors and sodium dodecyl sulfate (SDS) was added to the cells. After lysis, the cells were scraped and transferred to tubes and kept in a −80° C. freezer. Lysates were sonicated and treated with DNase before analysis on the degradation assays.

Assay [4] deals with THP-1 cells. Briefly: Chase assay with proposed AD interventions, Mesoscale immunoassay (Example 2). Type of assay: cell-based. Conditions: 16 hours DHA (100 μM) and/or NS1738 (10 μM); Aβ1-40 500 ng/ml; reference Aβ40 4 hour chase. Here is the method:
An immunoassay was set up on a Mesoscale platform using the same antibodies as, and a similar method to, Example 1. Cells were incubated overnight (16 hours) with DHA (100 μM) and/or NS1738 (10 μM). Aβ1-40 was added at a concentration of 500 ng/ml, and removed from the media before the 4 hour chase. DHA and NS1738 were removed from the media during the 4 hour chase.

Assay [5] relates to THP-1 cells. Briefly: Chase assay of Aβ catabolism, Simoa immunoassays of intracellular Aβ fragments (Example 1). Type of assay: cell-based. The conditions noted are these: TPA-differentiated THP-1; 100 ng/ml Abeta40 2 h, 4 hours chase; 100 nM Bafilomycin, 100 nM Rapamycin, 100 μM Neprilysin inhibitor, 200 nM BACE inhibitor, 1 μM IDE inhibitor; vs 4 hour chase. How it is done: To adjust for inter-day variations in measurements for the different experiments, values were normalized using the baseline condition as the reference for each day of experiments using the following formula: [(biomarker value/mean biomarker value)[…])].
Statistical analyses were carried out with one-way ANOVA models. If a significant (p<0.05) omnibus (F-test) ANOVA was shown, planned comparisons according to our hypotheses were carried out. This included a main comparison between the reference condition and experimental conditions (endolysosomal inhibitors and autophagosome activators). The Figures thus indicate within each bar the percentage change, and associated statistical significance (p-value) or lack thereof (n.s.), as compared to the reference condition (100%) (i.e. the main comparison). For some experiments (FIGS. 4, 5 and 7), additional comparisons between experimental conditions were conducted in accordance with hypotheses. Significant between-group differences for these comparisons are shown with horizontal bars with the associated statistical significance (p-value), or lack thereof (n.s.).
Aβ catabolism and detoxification, and the effect of example inhibitors and activators thereon, was measured using antibodies specific for intracellular Aβ mid-domain peptides, i.e. catabolism products. In particular, inhibition of endolysosomal activity is expected to reduce degradation and increase concentrations of species, here studied with Bafilomycin, which blocks V-ATPase and inhibits acidification of endolysosomes, thereby inhibiting endolysosomal enzyme activities. Addition of inhibitors of endolysosomal enzymes Neprilysin (Saido 2013) and Insulin Degradation Enzymes are expected to have similar effects (Jha, Jha et al. 2015, Sikanyika, Parkington et al. 2019), whereas BACE1 is involved both in Aβ generation and […] (Vassar, Kovacs et al. 2009, Liebsch, Kulic et al. 2019). Enhancing macroautophagy using Rapamycin is also expected to increase Aβ catabolism (FIG. 3; Spilman, Podlutskaya et al. 2010, Malik, Maddison et al. 2019)
Immunoassays were developed on the single molecule array (Simoa) platform (Quanterix, US) using proprietary antibodies directed against different epitopes of the amyloid β protein (Shown in FIG. 1; SEQ ID NOs: 3-5). The Aβx-40/42 assay used a 40-42 end-specific sheep monoclonal AB.4D7 (Bioventix plc, UK) as the capture antibody, and a sheep monoclonal AB.2A9 (Bioventix plc, UK) with a mid-domain epitope (SEQ ID NO: 7) as the detection antibody. The 40-42 end-specific antibody was raised against the epitope shown in SEQ ID NO: 5, and binds the C-terminal of both Aβ1-42 (SEQ ID NO: 1) and Aβ1-40 (SEQ ID NO: 2). The Aβ20-x assay used the same AB.4D7 antibody as the capture antibody, and the highly specific 20-cut point sheep monoclonal antibody, ABNT.2B8 (Bioventix plc, UK) as the detection antibody. For the Aβx-34 assay, AB.2A9 was used as the capture antibody and an anti-complex antibody, BVX.33420/H3 (Bioventix plc, UK), which preferentially binds a fragment having the C-terminal of SEQ ID NO: 6, was used as the detection antibody, ensuring mid-domain x-34 specificity.
Chase Assays THP-1 cells were differentiated toward macrophages by a 48 hour treatment with 100 nM TPA (12-O-tetradecanoylphorbol-13-acetate). Media was replaced with fresh medium with or without modulators of the autophagic/endolysosomal system: 100 nM Bafilomycin, 100 nM Rapamycin, 100 μM Neprilysin inhibitor, 200 nM BACE inhibitor, or 1 μM IDE inhibitor, or a triple combination of the enzyme inhibitors Neprilysin inhibitor, BACE inhibitor and IDE inhibitor. The cells were incubated for 1 hour before adding 100 ng/ml Abeta40 to the cells. Cells were further incubated for 2 hours before removing Abeta40 and a continued 4 hours chase with or without the respective modulators. Cells were washed before adding lysis buffer. Lysates were kept at −80° C. until analysis.

Assay [6] concerns cells in an innate immune model system. Conditions: DHA treatment of cells in an innate immune model system; cited from earlier work.

Entries after “also recorded” stand apart in the source; their conditions may differ. Counter-ions that a name gives are not always drawn.

Take unspecific antibody LB509: in assay [1], the concentration left after depletion is 11.1 pg/mL. For the same molecule, the Percent of untreated in assay [2] worked out at 80%.
With `O=C(Nc1cc(Cl)ccc1O)Nc1cc(C(F)(F)F)ccc1Cl` [NS1738], in the assay with THP-1 cells [3], the “intracellular Aβ20-x level” value is recorded as “continue to have an effect”, the “intracellular Aβx-34 level” value is reported as “continue to have an effect” and the “intracellular Aβx-40 level” value is “continue to have an effect”. In the assay on THP-1 cells [4], the “intracellular Aβx-34 level” value is “reduces the amount; also recorded: decreased”.
As to `CC(C)C[C@H](NP(=O)(O)O[C@@H]1O[C@@H](C)[C@H](O)[C@@H](O)[C@H]1O)C(=O)N[C@@H](Cc1c[nH]c2ccccc12)C(=O)O` [Neprilysin inhibitor, Phosphoramidon disodium salt], in the assay with THP-1 cells [5], the “intracellular Aβ20-x level” value is on record as “increases”, the “intracellular Aβx-34 level” value is “unchanged” and the “intracellular Aβx-40/42 level” value is on record as “increases”.
For the molecule `CO/C1=C\C(C)=C\[C@@H](C)[C@@H](O)[C@@H](C)C/C(C)=C/C=C/[C@H](OC)[C@@H]([C@@H](C)[C@@H](O)[C@H](C)[C@@]2(O)C[C@@H](O)[C@H](C)[C@@H](C(C)C)O2)OC1=O` [Bafilomycin, Bafilomycin A1], in the assay with THP-1 cells [5], the “intracellular Aβ20-x level” value was “significantly increases”, the “intracellular Aβx-34 level” value was “non-significantly increases” and the “intracellular Aβx-40/42 level” value is on record as “significantly increases”.
Take `NC1=N[C@@]2(c3cc(NC(=O)c4ccc(F)cn4)ccc3F)COC[C@H]2CS1` [BACE inhibitor, LY2886721]: in the assay on THP-1 cells [5], the “intracellular Aβ20-x level” value is “increases”, the “intracellular Aβx-34 level” value is recorded as “no effect” and the “intracellular Aβx-40/42 level” value is listed as “no effect”.
Turning to `CC/C=C\C/C=C\C/C=C\C/C=C\C/C=C\C/C=C\CCC(=O)O` [DHA, (4Z, 7Z, 10Z, 13Z, 16Z, 19Z)-4,7, 10, 13, 16, 19-docosahexaenoic acid], in the assay on THP-1 cells [3], the “intracellular Aβ20-x level” value is listed as “continue to have an effect”, the “intracellular Aβx-34 level” value is “continue to have an effect” and the “intracellular Aβx-40 level” value is recorded as “continue to have an effect”. Besides, the “Aβ1-42 phagocytosis and degradation” value in assay [6] is “increase”. In addition, in the assay with THP-1 cells [4], the “intracellular Aβx-34 level” value is “reduces the amount; also recorded: decreased”.
On to `NCCCC[C@@H]1NC(=O)/C=C/C(=O)N[C@H](C(N)=O)CCCCNC(=O)[C@@H](Cc2ccc(C(=O)c3ccccc3)cc2)NC(=O)[C@H](CC2CCCCC2)NC1=O` [IDE inhibitor, 6bK], for which, in the assay with THP-1 cells [5], the “intracellular Aβ20-x level” value is on record as “increases”, the “intracellular Aβx-34 level” value is given as “no effect” and the “intracellular Aβx-40/42 level” value is “no effect”.

The values above are taken from patent US20240168011A1, “CLEARANCE ASSAY” (Akershus Universitetssykehus HF, priority 2021, published 2024).
